# Key:
# [1] = system: IκBNS mRNA; type: cell-based, mouse
# [2] = system: thymocytes in N15tg RAG-2−/− H-2b FTOC; settings: cited from earlier work
# [3] = system: NF-κB; assay: NF-κB luciferase reporter assay in transfected Cos-7 cells; type: cell-based
# [4] = system: NF-κB; assay: NF-κB-sensitive reporter constructs in transiently transfected Jurkat T cells; type: cell-based
molecule,measurement,setting,value
CC(C)C[C@H](N)C(=O)O [L4],IκBNS mRNA induction,[1],do not upregulate
same,thymic selection outcome,[2],positive selection
"CCCCCCCCCCCCCC(=O)O[C@@H]1[C@@H](C)[C@@]2(O)[C@@H](C=C(CO)C[C@]3(O)C(=O)C(C)=C[C@@H]23)[C@@H]2C(C)(C)[C@]12OC(C)=O [PMA, phorbol-12-myristate-13-acetate]",increase in NF-κB luciferase activity relative to untreated cells,[3]; 50 ng/ml for 7 h,5-10 fold
"IκBNS: novel 327 amino acid IκB family protein with 7 ankyrin domains (SEQ ID NO: 4); expressed from Flag-tagged pcDNA3.1 construct (protein, Flag tag; mouse, expressed from Flag-tagged pcDNA3.1 construct) MEDSLDTRLYPEPSLSQVGSWRVSSLPSGSPQLPSPTGPSLETARAHILALGPQQLLAQMEDDTYSLQGWRVSPSGPQPGPSLEARAHLALGPQQLLAQDEEGDTLLHLFAARGLRWAAYAAAEVLQMYRQLDIREHKGKTPLLVAAAANQPLIVEDLLDEEGDTLLHLFAARGLRWAAYAAAEVLQYRLDIREHKGKTPLLVAAAANQPLIVEDLLSLGAEPNATDHQGRSVLHVAATYGLPGVLSAVFKSGIQVDLEARDFEGLTPLHTAVLALNLGAEPNADHQGRSVLHVAATYGLPGVLAVSGQVDLEARDFEGLTPLHTALALNAAMLPASVCPRMQNSQARDRLTCVQMLLQMGASHTSQEIKSNKTILHLAVQAANPTLVQLAMPCPRQARDRLCVMLLQMGAHTSQEIKSNKTLHLAVQAANPTLVQLLLGLPRGDLRAFVNMKAHGNTALHMAAALPPGPPQEAIVRHLLAAGADPTLRNLENEQPVLLLPRGDLRFVNMKAHGNTALHMAAALPPGPQEAIVRHLLAAGADPTLRNLEGEQPVHLLRPGGPEGLRQLLKRSRTAPPGLSSHLLRPGGPEGLRQLLKRSRAPPGLSS",effect of cotransfection on PMA-induced NF-κB-driven luciferase activity,"[3]; 10 μg construct, PMA 50 ng/ml 7 h",reduced NF-κB-driven luciferase activity to a level approaching that of cells transfected with the vector only
same,activity of NF-κB-sensitive reporter constructs,[4],reduced the activity

# Reference: US20050084916A1, “Identification of the IkappaBNS protein and its products” (priority 2001, published 2005)
